Here are results for one compound from publication PMC12391994, “Synthesis of a fac-Tricarbonylrhenium(I) Complex with Pyrithione, Its Physicochemical Characterization, and Assessment of Biological Effects” (ACS Omega, 2025).

Data set [1] can be described thus: Stability of complex 4 in DMSO followed by 1H NMR. The data set is classed as physicochemical. The procedure:
A Bruker Avance III HD Ascend 500 Plus instrument (Billerica, MA) was used for solution NMR studies. Spectra were recorded with a WATERGATE water suppression pulse scheme in the presence of 10% (v/v) D2O in most cases. DSS internal standard was added to samples to obtain reference peaks.

In data set [2] the target is T1, cathepsin B (endopeptidase activity) (Homo sapiens, UniProt P07858).
T1 construct: made in house; host or cells: E. coli
As to the kind of experiment: Determination of inhibition constants, cathepsin B endopeptidase activity. The data set is classed as biochemical. The settings on record: substrate Z-RR-AMC. The procedure:
(§1) Human recombinant cathepsin B was expressed in E. coli, recombinant cathepsin V was expressed in Pichia pastoris, and human recombinant cathepsin L was expressed in E. coli, as reported. − For the determination of cathepsin B endopeptidase and exopeptidase activities, 100 mM phosphate buffer (pH 6.0) and 60 mM acetate buffer (pH 5.0) were used, respectively, and for the determination of cathepsin V and L activities, 100 mM acetate buffer (pH 5.5) was used. All buffers contained 0.1% PEG 8000 (Sigma-Aldrich, St. Louis, MO), 5 mM cysteine, and 1.5 mM EDTA. Prior to the assay, the enzymes were activated in the assay buffer for 5 min at 37 °C.
(§2) Inhibition constants were calculated from the reaction velocities measured at three substrate concentrations (the substrate Z-Arg-Arg-AMC at concentrations of 60, 180, and 360 μM and the substrate Abz-Gly-Ile-Val-Arg-Ala-Lys(Dnp)-OH at concentrations of 1, 3, and 6 μM to assess cathepsin B endopeptidase and exopeptidase activity, respectively) in the presence of seven concentrations of the inhibitor (0, 20, 40, 60, 80, 100, and 200 μM). […] Formation of fluorescent degradation products was monitored as described above. […]

Data set [3] has as its target T2, human serum albumin (HSA) (Homo sapiens, UniProt P02768).
T2 construct: purchased Sigma-Aldrich/Merck A8763
As to the kind of experiment: Membrane ultrafiltration with HSA. The settings on record: 1:2 protein-to-complex ratio (25 μM HSA, 50 μM complex), pH 7.4. The data set is classed as binding. The procedure:
To characterize the binding strength of the complex to HSA, the UV–vis spectrum of the complex was recorded in the presence of different amounts of the protein (Figure ). The gradual spectral changes leveled off at about 0.5 equiv of the protein, indicating at least two binding sites. However, from these spectral changes, no formation constants could be calculated due to the overlapping processes.
Milli-pore, Amicon Ultra-0.5 membrane filters (10 kDa) were used to separate samples containing 25 μM HSA and 50 μM complex (1:2 biomolecule-to-complex ratio) into low and high molecular mass (LMM and HMM) fractions as described in our former work. UV–vis spectrophotometry was used to determine the concentration of the nonbound compounds in the LMM fractions by comparing to a reference sample without the protein.

Data set [4] relates to Colo320 cells. As to the kind of experiment: MTT cytotoxicity assay, Colo320. The note with it: 72 h incubation. The data set is classed as cell-based, human. The procedure:
Its cytotoxicity was determined in the human HeLa cervical cancer cell line, the drug-sensitive Colo205 and its resistant counterpart, the ABCB1 expressing Colo320 colon adenocarcinoma cancer cell lines, using the colorimetric 3-(4,5-dimethylthiazol-2-yl)-2,5-diphenyltetrazolium bromide (MTT) test. To investigate the selectivity toward cancer cells, the noncancerous fibroblast CCD-19Lu cell line was included.
Drug-sensitive Colo205 (ATCC-CCL-222) and ABCB1 (MDR1)-LRP expressing and doxorubicin-resistant Colo320/MDR-LRP (ATCC-CCL-220.1) human colonic adenocarcinoma cell lines were purchased from LGC Promochem (Teddington, U.K.). The cells were cultured in RPMI 1640 medium supplemented with 10% heat-inactivated fetal bovine serum, 2 mM L-glutamine, 1 mM Na-pyruvate, and 10 mM HEPES.
The tested compound was dissolved in DMSO to prepare a 5 mM stock solution, which was diluted in complete culture medium, to study the effect of compounds on cell growth of human colonic adenocarcinoma cell lines. Doxorubicin was used as the positive control. The cells were treated with a trypsin-versene (EDTA) solution. […] Cell growth was determined by measuring the optical density (OD) at 540/630 nm with a Multiscan EX ELISA reader (Thermo Labsystems, Cheshire, WA). […]

Data set [5] concerns the target T3, cathepsin B (exopeptidase activity) (Homo sapiens, UniProt P07858).
T3 construct: made in house; host or cells: E. coli
Briefly: Determination of inhibition constants, cathepsin B exopeptidase activity. The note with it: substrate Abz-GIVRAK(Dnp)-OH, mixed inhibition. The data set is classed as biochemical. The procedure:
as §1, §2

Several values for one entry are separate records, joined by “and”; a condition that tells them apart may be missing. Equal values may be shown once. Marks after values point to notes of the source that are not given here.

T2 sequence (P02768 25-609): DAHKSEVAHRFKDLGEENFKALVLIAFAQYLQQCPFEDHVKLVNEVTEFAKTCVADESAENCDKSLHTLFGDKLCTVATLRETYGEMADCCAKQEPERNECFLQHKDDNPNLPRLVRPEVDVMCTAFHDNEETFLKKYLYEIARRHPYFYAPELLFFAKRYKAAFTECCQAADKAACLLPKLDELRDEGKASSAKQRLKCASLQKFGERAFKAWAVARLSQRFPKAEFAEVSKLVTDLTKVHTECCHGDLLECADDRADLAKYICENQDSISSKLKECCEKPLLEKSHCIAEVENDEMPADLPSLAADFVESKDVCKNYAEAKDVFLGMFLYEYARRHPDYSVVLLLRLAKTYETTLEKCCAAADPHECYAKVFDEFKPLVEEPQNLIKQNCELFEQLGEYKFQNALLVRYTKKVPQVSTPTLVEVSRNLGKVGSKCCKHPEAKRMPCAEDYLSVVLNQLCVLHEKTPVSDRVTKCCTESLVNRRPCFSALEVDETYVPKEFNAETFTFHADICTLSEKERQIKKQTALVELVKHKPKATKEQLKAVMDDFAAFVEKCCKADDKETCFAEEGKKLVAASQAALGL

By IC50 is commonly meant the point on the concentration scale where inhibition reaches its midpoint. Read a high IC50 as weaker potency. The term Ki denotes a dissociation constant, usually derived from enzyme kinetics or from competition with a known ligand. Take `N#Cc1ccccc1.[C-]#[O+].[C-]#[O+].[C-]#[O+].[O-]n1ccccc1=S.[Re+]` [complex 4, fac-[Re(CO)3(pth)(benzonitrile)]]: in data set [1] (48 h monitoring period, light-exclusion), the “bidentate pyrithione ligand coordination to rhenium(I)” value is “remained coordinated”. In addition, the “time for complete replacement of benzonitrile with a solvent molecule” value in data set [1] (light-exclusion conditions, 1H NMR) is given as at most 1 h. Moreover, the “mode of inhibition, cathepsin B endopeptidase activity” value in data set [2] is listed as “uncompetitive”. The “Ki′ (dissociation of enzyme–substrate–inhibitor complex), endopeptidase activity” value in data set [2] (uncompetitive inhibition) was 17.02 ± 1.59 μM and 17.0 ± 1.6 ^c μM. In addition, the “unbound complex in low molecular mass fraction” value in data set [3] is about 10%. In data set [4], this compound displayed an IC50 of 10.5 ± 0.85 µM. Further, the “Ki′ (dissociation of enzyme–substrate–inhibitor complex), exopeptidase activity” value in data set [5] is 67.0 ± 8.3 ^d μM. Further, the Ki in data set [5] (read-out: Ki (dissociation of enzyme–inhibitor complex), exopeptidase activity) worked out at 165 ± 76 µM.
